Source: patent publication US20240366770A1, “DEGRADATION OF BRUTON'S TYROSINE KINASE (BTK) BY CONJUGATION OF BTK INHIBITORS WITH E3 LIGASE LIGAND AND METHODS OF USE” (BeiGene Switzerland GmbH, priority 2021, published 2024)
pIC50: −log10 of the molar value. Like-named read-outs stand apart in the source and are kept apart here.

Assays:
BTK = target: T1, BTK (Homo sapiens, UniProt Q06187); test: BTK degradation in TMD-8 cells (HTRF assay); type: cell-based; conditions: 6 h treatment, IC50 (DC50) of BTK degradation
T1 construct: High control=Cell group with added DMSO and without compound, indicating microplate readings without BTK degradation; endogenous in cells; host or cells: TMD-8
T1 sequence (Q06187 whole entry): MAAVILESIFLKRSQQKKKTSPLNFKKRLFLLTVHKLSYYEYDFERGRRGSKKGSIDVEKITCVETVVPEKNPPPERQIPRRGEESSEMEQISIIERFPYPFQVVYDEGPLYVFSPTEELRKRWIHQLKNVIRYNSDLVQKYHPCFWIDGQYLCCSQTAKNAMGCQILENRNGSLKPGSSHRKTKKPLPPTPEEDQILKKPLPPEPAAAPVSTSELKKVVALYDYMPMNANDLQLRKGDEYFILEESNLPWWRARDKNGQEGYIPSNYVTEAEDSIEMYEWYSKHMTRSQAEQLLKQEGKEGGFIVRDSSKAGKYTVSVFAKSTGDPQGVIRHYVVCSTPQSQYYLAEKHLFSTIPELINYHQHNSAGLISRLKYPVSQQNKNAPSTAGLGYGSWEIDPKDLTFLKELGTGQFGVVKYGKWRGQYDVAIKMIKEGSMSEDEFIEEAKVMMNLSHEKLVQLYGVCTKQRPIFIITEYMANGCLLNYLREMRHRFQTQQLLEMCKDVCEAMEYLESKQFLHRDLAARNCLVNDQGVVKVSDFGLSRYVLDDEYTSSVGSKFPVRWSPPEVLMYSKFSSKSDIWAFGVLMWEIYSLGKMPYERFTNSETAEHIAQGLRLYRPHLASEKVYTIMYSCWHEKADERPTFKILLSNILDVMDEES
Procedure, shortened: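 BTK remaining after compound treatment was measured by HTRF (337 nm excitation, 665/620 nm emission) in lysates of TMD-8 cells. Cells were exposed for 6 h to eight 6-fold-spaced concentrations in 0.2% DMSO. DC50 values were obtained from a Hill-equation fit (top, bottom, slope) of % inhibition.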

HEK-293 cells = test: HEK-293 cytotoxicity detection (CellTiter-Glo); type: cell-based; conditions: HEK-293 cells, 72 h incubation, CellTiter-Glo luminescence, IC50 of cell proliferation inhibition, read-out: HEK293
Procedure, shortened: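 Four-parameter logistic fitting of percent inhibition versus concentration gives IC50. Luminescent ATP read-out (CellTiter-Glo) after 72 h compound treatment of HEK-293 cells, 8 doses in 4-fold steps from a 5 mM 500× DMSO stock, final DMSO 0.2%.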

SMILES | DC50 (BTK) [nM] | pIC50 (HEK-293 cells; Homo sapiens) | pIC50 (HEK-293 cells)
Cc1c([C@@H](C)NC(=O)c2nc(C3(C)CC3)no2)ccc(-c2ncnc3[nH]c4cc(N5CCN(C6CC(c7ccc([C@@H]8CCC(=O)NC8=O)cc7)C6)CC5)ccc4c23)c1F (stereo partly drawn) [Example 65, N—((R)-1-(4-(7-(4-(3-(4-((S)-2,6-dioxopiperidin-3-yl)phenyl)cyclobutyl)piperazin-1-yl)-9H-pyrimido[4,5-b]indol-4-yl)-3-fluoro-2-methylphenyl)ethyl)-3-(1-methylcyclopropyl)-1,2,4-oxadiazole-5-carboxamide] | 4.24 | < 5.00 | 
COc1cc2c(cc1N1CCN([C@H]3C[C@@H](c4ccc(O[C@@H]5CCC(=O)NC5=O)cc4)C3)CC1)[nH]c1ncnc(-c3ccc([C@@H](C)NC(=O)c4nc(C(C)(C)C)no4)c(C)c3)c12 [Example 127, 3-(tert-butyl)-N—((R)-1-(4-(7-(4-((1S,3s)-3-(4-(((R)-2,6-dioxopiperidin-3-yl)oxy)phenyl)cyclobutyl)piperazin-1-yl)-6-methoxy-9H-pyrimido[4,5-b]indol-4-yl)-2-methylphenyl)ethyl)-1,2,4-oxadiazole-5-carboxamide] | 2.49 | < 5.00 | 
COc1cc2c(cc1N1CCN(CCc3ccc(C4(C)CCC(=O)NC4=O)cc3)CC1)[nH]c1ncnc(-c3ccc([C@@H](C)NC(=O)c4nc(C(C)(C)C)no4)c(C)c3)c12 (stereo partly drawn) [Example 92, 3-(tert-butyl)-N-((1R)-1-(4-(6-methoxy-7-(4-(4-(3-methyl-2,6-dioxopiperidin-3-yl)phenethyl)piperazin-1-yl)-9H-pyrimido[4,5-b]indol-4-yl)-2-methylphenyl)ethyl)-1,2,4-oxadiazole-5-carboxamide] | 3.08 | < 5.00 | 
Cc1cc(-c2ncnc3[nH]c4cc(N5CCC6(CC5)CCN(C5CC(c7ccc(N[C@@H]8CCC(=O)NC8=O)cc7)C5)CC6)ccc4c23)ccc1[C@@H](C)NC(=O)c1nc(C(C)(C)C)no1 (stereo partly drawn) [Example 107, 3-(tert-butyl)-N—((R)-1-(4-(7-(9-((1S,3r)-3-(4-(((S)-2,6-dioxopiperidin-3-yl)amino)phenyl)cyclobutyl)-3,9-diazaspiro[5.5]undecan-3-yl)-9H-pyrimido[4,5-b]indol-4-yl)-2-methylphenyl)ethyl)-1,2,4-oxadiazole-5-carboxamide] | 2.99 |  | 5.99
Cc1c([C@@H](C)NC(=O)c2noc(C(C)(C)C)n2)ccc(-c2ncnc3[nH]c4cc(N5CCN(CC6CCN(c7ccc(N8CCC(=O)NC8=O)cc7)CC6)CC5)ccc4c23)c1F [Example 27, (R)-5-(tert-butyl)-N-(1-(4-(7-(4-((1-(4-(2,4-dioxotetrahydropyrimidin-1(2H)-yl)phenyl)piperidin-4-yl)methyl)piperazin-1-yl)-9H-pyrimido[4,5-b]indol-4-yl)-3-fluoro-2-methylphenyl)ethyl)-1,2,4-oxadiazole-3-carboxamide] | 0.299 | < 5.00 | 
Cc1cc(-c2ncnc3[nH]c4nc(C5CCN(CC6CCN(c7ccc(N8CCC(=O)NC8=O)cc7)CC6)CC5)ccc4c23)ccc1[C@@H](C)NC(=O)c1nc(C(C)(C)C)no1 [Example 39, (R)-3-(tert-butyl)-N-(1-(4-(7-(1-((1-(4-(2,4-dioxotetrahydropyrimidin-1(2H)-yl)phenyl)piperidin-4-yl)methyl)piperidin-4-yl)-9H-pyrido[3′,2′:4,5]pyrrolo[2,3-d]pyrimidin-4-yl)-2-methylphenyl)ethyl)-1,2,4-oxadiazole-5-carboxamide] | 0.725 | 5.40 | 
COc1cc2c(cc1N1CCN([C@H]3C[C@@H](c4ccc(N[C@H]5CCC(=O)NC5=O)cc4)C3)CC1)[nH]c1ncnc(-c3cc(C)c([C@@H](C)NC(=O)c4nc(C5(C)CC5)no4)cc3F)c12 [Example 95, N—((R)-1-(4-(7-(4-((1R,3s)-3-(4-(((S)-2,6-dioxopiperidin-3-yl)amino)phenyl)cyclobutyl)piperazin-1-yl)-6-methoxy-9H-pyrimido[4,5-b]indol-4-yl)-5-fluoro-2-methylphenyl)ethyl)-3-(1-methylcyclopropyl)-1,2,4-oxadiazole-5-carboxamide] | 0.49 | < 5.00 | 
Cc1cc(-c2ncnc3[nH]c4c(c23)CCC(N2CCN(CC3CCN(c5ccc(N6CCC(=O)NC6=O)cc5)CC3)CC2)C4)ccc1[C@@H](C)NC(=O)c1nc(C(C)(C)C)no1 (stereo partly drawn) [Example 132, 3-(tert-butyl)-N-((1R)-1-(4-(7-(4-((1-(4-(2,4-dioxotetrahydropyrimidin-1(2H)-yl)phenyl)piperidin-4-yl)methyl)piperazin-1-yl)-6,7,8,9-tetrahydro-5H-pyrimido[4,5-b]indol-4-yl)-2-methylphenyl)ethyl)-1,2,4-oxadiazole-5-carboxamide] | > 2000 | < 5.00 | 
Cc1cc(-c2ncnc3[nH]c4cc(N5CCN(C6CN(C7CN(c8ccc(N9CCC(=O)NC9=O)cc8)C7)C6)CC5)ccc4c23)ccc1[C@@H](C)NC(=O)c1nc(C2(C)CC2)no1 [Example 122, (R)—N-(1-(4-(7-(4-(1′-(4-(2,4-dioxotetrahydropyrimidin-1(2H)-yl)phenyl)-[1,3′-biazetidin]-3-yl)piperazin-1-yl)-9H-pyrimido[4,5-b]indol-4-yl)-2-methylphenyl)ethyl)-3-(1-methylcyclopropyl)-1,2,4-oxadiazole-5-carboxamide] | 0.395 | < 5.00 | 
Cc1c([C@@H](C)NC(=O)c2noc(C(C)(C)C)n2)ccc(-c2ncnc3[nH]c4cc(N5CCN(C6CCN(c7ccc(C8CCC(=O)NC8=O)cc7)CC6)CC5)ccc4c23)c1F (stereo partly drawn) [Example 29, 5-(tert-butyl)-N-((1R)-1-(4-(7-(4-(1-(4-(2,6-dioxopiperidin-3-yl)phenyl)piperidin-4-yl)piperazin-1-yl)-9H-pyrimido[4,5-b]indol-4-yl)-3-fluoro-2-methylphenyl)ethyl)-1,2,4-oxadiazole-3-carboxamide] | 3.16 | < 5.00 | 
Cc1cc(-c2ncnc3[nH]c4cc(N5CCN(CC6CCN(c7ccc(N8CCC(=O)NC8=O)c(C)c7)CC6)CC5)ccc4c23)c(F)cc1[C@@H](C)NC(=O)c1noc(C(C)(C)C)n1 [Example 24, (R)-5-(tert-butyl)-N-(1-(4-(7-(4-((1-(4-(2,4-dioxotetrahydropyrimidin-1(2H)-yl)-3-methylphenyl)piperidin-4-yl)methyl)piperazin-1-yl)-9H-pyrimido[4,5-b]indol-4-yl)-5-fluoro-2-methylphenyl)ethyl)-1,2,4-oxadiazole-3-carboxamide] | 0.47 | < 5.00 | 
COc1cc2c(cc1N1CCN(Cc3ccc(SC4CCC(=O)NC4=O)cc3)CC1)[nH]c1ncnc(-c3ccc([C@@H](C)NC(=O)c4nc(C5(C)CC5)no4)c(C)c3)c12 (stereo partly drawn) [Example 77, N-((1R)-1-(4-(7-(4-(4-((2,6-dioxopiperidin-3-yl)thio)benzyl)piperazin-1-yl)-6-methoxy-9H-pyrimido[4,5-b]indol-4-yl)-2-methylphenyl)ethyl)-3-(1-methylcyclopropyl)-1,2,4-oxadiazole-5-carboxamide] | 8.48 | < 5.00 | 
Cc1c([C@@H](C)NC(=O)c2noc(C(C)(C)C)n2)ccc(-c2ncnc3[nH]c4cc(N5CCN(Cc6ccc7c(c6)n(C6CCC(=O)NC6=O)c(=O)n7C)CC5)ccc4c23)c1F (stereo partly drawn) [Example 78, 5-(tert-butyl)-N-((1R)-1-(4-(7-(4-((3-(2,6-dioxopiperidin-3-yl)-1-methyl-2-oxo-2,3-dihydro-1H-benzo[d]imidazol-5-yl)methyl)piperazin-1-yl)-9H-pyrimido[4,5-b]indol-4-yl)-3-fluoro-2-methylphenyl)ethyl)-1,2,4-oxadiazole-3-carboxamide] | > 2000 | < 5.00 | 
Cc1cc(-c2ncnc3[nH]c4cc(N5CCN([C@H]6C[C@@H](c7ccc(N[C@H]8CCC(=O)NC8=O)cc7)C6)CC5)ccc4c23)ccc1[C@@H](C)NC(=O)c1nc(C2(C)CC2)no1 [Example 120, N—((R)-1-(4-(7-(4-((1R,3s)-3-(4-(((S)-2,6-dioxopiperidin-3-yl)amino)phenyl)cyclobutyl)piperazin-1-yl)-9H-pyrimido[4,5-b]indol-4-yl)-2-methylphenyl)ethyl)-3-(1-methylcyclopropyl)-1,2,4-oxadiazole-5-carboxamide] | 1.25 | < 5.00 | 
Cc1c([C@@H](C)NC(=O)c2noc(C(C)(C)C)n2)ccc(-c2ncnc3[nH]c4cc(N5CCN(CCc6ccc(SC7CCC(=O)NC7=O)cc6)CC5)ccc4c23)c1F (stereo partly drawn) [Example 80, 5-(tert-butyl)-N-((1R)-1-(4-(7-(4-(4-((2,6-dioxopiperidin-3-yl)thio)phenethyl)piperazin-1-yl)-9H-pyrimido[4,5-b]indol-4-yl)-3-fluoro-2-methylphenyl)ethyl)-1,2,4-oxadiazole-3-carboxamide] | 16.6 | < 5.00 | 
Cc1cc(-c2ncnc3[nH]c4cc(N5CCC6(CC5)CCN([C@H]5C[C@@H](c7ccc([C@@H]8CCC(=O)NC8=O)cc7)C5)CC6)ccc4c23)ccc1[C@@H](C)NC(=O)c1nc(C(C)(C)C)no1 [Example 111, 3-(tert-butyl)-N—((R)-1-(4-(7-(9-((1R,3s)-3-(4-((S)-2,6-dioxopiperidin-3-yl)phenyl)cyclobutyl)-3,9-diazaspiro[5.5]undecan-3-yl)-9H-pyrimido[4,5-b]indol-4-yl)-2-methylphenyl)ethyl)-1,2,4-oxadiazole-5-carboxamide] | 2.89 | 5.86 | 
